From US7300934B2, “Benzamide nitriles” (Roche Palo Alto LLC, priority 2003, dated 2007)

## CC(C)C[C@@H](C#N)NC(=O)[C@@H]1CCCC[C@@H]1NC(=O)c1ccc(-n2cncn2)cc1 [Compound 32, N-[(1S,2R)-2-({[(1S)-1-cyano-3-methylbutyl]amino}carbonyl)cyclohexyl]-4-(1H-1,2,4-triazol-1-yl)benzamide]
  melting point: 156 to 158.9 °C
